#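 A five-concentration, 48-hour dose response in 96-well plates underlies each endpoint, interpolated linearly between surrounding concentrations. TGI: concentration producing complete growth inhibition.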
# Experiments:
# Assay in all cases: NCI anticancer screen, dose series, 48 h
# [1] = tested on: 786-0 renal
# [2] = tested on: A498 renal
# [3] = tested on: A549 NSCLC
# [4] = tested on: BT-549 breast
# [5] = tested on: CAKI-1 renal
# [6] = tested on: CCRF-CEM leukemia
# [7] = tested on: COLO 205 colon
# [8] = tested on: DU-145 prostate
# [9] = tested on: HCT-116 colon
# [10] = tested on: HCT-15 colon
# [11] = tested on: HL-60(TB) leukemia
# [12] = tested on: HS 578T breast
# [13] = tested on: HT29 colon
# [14] = tested on: IGROV1 ovarian
# [15] = tested on: K-562 leukemia
# [16] = tested on: KM12 colon
# [17] = tested on: LOX IMVI melanoma
# [18] = tested on: M14 melanoma
# [19] = tested on: MALME-3M melanoma
# [20] = tested on: MCF7 breast
# [21] = tested on: MDA-MB-231 breast
# [22] = tested on: MDA-MB-435
# [23] = tested on: MDA-N
# [24] = tested on: MOLT-4 leukemia
# [25] = tested on: NCI-H226 lung
# [26] = tested on: NCI-H23 lung
# [27] = tested on: NCI-H460 lung
# [28] = tested on: NCI/ADR-RES ovarian
# [29] = tested on: OVCAR-3 ovarian
# [30] = tested on: OVCAR-4 ovarian
# [31] = tested on: OVCAR-8 ovarian
# [32] = tested on: PC-3 prostate
# [33] = tested on: RPMI-8226 leukemia
# [34] = tested on: SF-268 CNS
# [35] = tested on: SF-295 CNS
# [36] = tested on: SF-539 CNS
# [37] = tested on: SK-MEL-2 melanoma
# [38] = tested on: SK-MEL-28 melanoma
# [39] = tested on: SK-MEL-5 melanoma
# [40] = tested on: SN12C renal
# [41] = tested on: SNB-19 CNS
# [42] = tested on: SR leukemia
# [43] = tested on: SW-620 colon
# [44] = tested on: T-47D breast
# [45] = tested on: TK-10 renal
# [46] = tested on: U251 CNS
# [47] = tested on: UACC-257 melanoma
# [48] = tested on: UACC-62 melanoma
# [49] = tested on: UO-31 renal
# [50] = tested on: ACHN renal
# [51] = tested on: HCC-2998 colon
# [52] = tested on: HOP-62 NSCLC
# [53] = tested on: HOP-92 NSCLC
# [54] = tested on: NCI-H522 lung
# [55] = tested on: OVCAR-5 ovarian
# [56] = tested on: RXF 393 renal
# [57] = tested on: SK-OV-3 ovarian
# [58] = tested on: SNB-75 CNS
smiles,measurement,setting,value
CC(=O)n1cc(OP(=O)(Oc2ccccc2)Oc2ccccc2)c2ccccc21,TGI,[1],> 100 µM
same,TGI,[2],> 100 µM
same,TGI,[3],> 100 µM
same,TGI,[4],> 100 µM
same,TGI,[5],54.3 µM
same,TGI,[6],50.4 µM
same,TGI,[7],27.2 µM
same,TGI,[8],> 100 µM
same,TGI,[9],92.2 µM
same,TGI,[10],> 100 µM
same,TGI,[11],50.3 µM
same,TGI,[12],> 100 µM
same,TGI,[13],> 100 µM
same,TGI,[14],> 100 µM
same,TGI,[15],67.4 µM
same,TGI,[16],> 100 µM
same,TGI,[17],62.1 µM
same,TGI,[18],52.1 µM
same,TGI,[19],> 100 µM
same,TGI,[20],31.5 µM
same,TGI,[21],86.4 µM
same,TGI,[22],50.3 µM
same,TGI,[23],> 100 µM
same,TGI,[24],50.9 µM
same,TGI,[25],> 100 µM
same,TGI,[26],> 100 µM
same,TGI,[27],50.8 µM
same,TGI,[28],44.3 µM
same,TGI,[29],93.6 µM
same,TGI,[30],73.3 µM
same,TGI,[31],> 100 µM
same,TGI,[32],31 µM
same,TGI,[33],42.2 µM
same,TGI,[34],81.3 µM
same,TGI,[35],57.3 µM
same,TGI,[36],42.5 µM
same,TGI,[37],77 µM
same,TGI,[38],86 µM
same,TGI,[39],40.9 µM
same,TGI,[40],> 100 µM
same,TGI,[41],> 100 µM
same,TGI,[42],72.4 µM
same,TGI,[43],> 100 µM
same,TGI,[44],80.2 µM
same,TGI,[45],> 100 µM
same,TGI,[46],> 100 µM
same,TGI,[47],77.2 µM
same,TGI,[48],42.6 µM
same,TGI,[49],> 100 µM
CN(C)c1ccc(C2CC(c3ccc4ccccc4c3O)=NN2c2ccc([N+](=O)[O-])cc2[N+](=O)[O-])cc1 (stereo unspecified),TGI,[1],> 100 µM
same,TGI,[2],> 100 µM
same,TGI,[3],> 100 µM
same,TGI,[50],> 100 µM
same,TGI,[4],> 100 µM
same,TGI,[5],> 100 µM
same,TGI,[6],94.3 µM
same,TGI,[7],> 100 µM
same,TGI,[8],> 100 µM
same,TGI,[51],> 100 µM
same,TGI,[9],> 100 µM
same,TGI,[10],> 100 µM
same,TGI,[52],> 100 µM
same,TGI,[53],> 100 µM
same,TGI,[12],> 100 µM
same,TGI,[13],> 100 µM
same,TGI,[14],> 100 µM
same,TGI,[16],> 100 µM
same,TGI,[18],> 100 µM
same,TGI,[19],> 100 µM
same,TGI,[20],> 100 µM
same,TGI,[21],> 100 µM
same,TGI,[22],34.6 µM
same,TGI,[23],30.5 µM
same,TGI,[24],94.5 µM
same,TGI,[25],> 100 µM
same,TGI,[26],77.7 µM
same,TGI,[27],> 100 µM
same,TGI,[54],> 100 µM
same,TGI,[28],> 100 µM
same,TGI,[29],> 100 µM
same,TGI,[30],> 100 µM
same,TGI,[55],> 100 µM
same,TGI,[31],> 100 µM
same,TGI,[32],> 100 µM
same,TGI,[56],> 100 µM
same,TGI,[34],> 100 µM
same,TGI,[35],> 100 µM
same,TGI,[36],> 100 µM
same,TGI,[37],> 100 µM
same,TGI,[38],> 100 µM
same,TGI,[57],> 100 µM
same,TGI,[40],> 100 µM
same,TGI,[58],> 100 µM
same,TGI,[42],51.3 µM
same,TGI,[43],> 100 µM
same,TGI,[44],> 100 µM
same,TGI,[45],> 100 µM
same,TGI,[46],> 100 µM
same,TGI,[47],> 100 µM
same,TGI,[48],37.2 µM
same,TGI,[49],> 100 µM

# Reference: PubChem BioAssay (NCI)
